# Patent US20060128737A1, “Androgen receptor agonists” (KAKEN PHARMACEUTICAL CO., LTD., priority 2003, published 2006)
# Experiments:
# [1] = target: T1, rat androgen receptors (rat AR) (Rattus norvegicus, UniProt P15207); experiment: Test for competitive binding to rat androgen receptors (rat AR); details: RBA=100×(IC50 of hydroxyflutamide)/(IC50 of compound); 3H-testosterone, rat prostate AR fraction
# T1 construct: from tissue; host or cells: prostate of orchiectomized 11-week-old male SD rats (cytosolic supernatant of homogenate)
# T1 sequence (P15207 1-902): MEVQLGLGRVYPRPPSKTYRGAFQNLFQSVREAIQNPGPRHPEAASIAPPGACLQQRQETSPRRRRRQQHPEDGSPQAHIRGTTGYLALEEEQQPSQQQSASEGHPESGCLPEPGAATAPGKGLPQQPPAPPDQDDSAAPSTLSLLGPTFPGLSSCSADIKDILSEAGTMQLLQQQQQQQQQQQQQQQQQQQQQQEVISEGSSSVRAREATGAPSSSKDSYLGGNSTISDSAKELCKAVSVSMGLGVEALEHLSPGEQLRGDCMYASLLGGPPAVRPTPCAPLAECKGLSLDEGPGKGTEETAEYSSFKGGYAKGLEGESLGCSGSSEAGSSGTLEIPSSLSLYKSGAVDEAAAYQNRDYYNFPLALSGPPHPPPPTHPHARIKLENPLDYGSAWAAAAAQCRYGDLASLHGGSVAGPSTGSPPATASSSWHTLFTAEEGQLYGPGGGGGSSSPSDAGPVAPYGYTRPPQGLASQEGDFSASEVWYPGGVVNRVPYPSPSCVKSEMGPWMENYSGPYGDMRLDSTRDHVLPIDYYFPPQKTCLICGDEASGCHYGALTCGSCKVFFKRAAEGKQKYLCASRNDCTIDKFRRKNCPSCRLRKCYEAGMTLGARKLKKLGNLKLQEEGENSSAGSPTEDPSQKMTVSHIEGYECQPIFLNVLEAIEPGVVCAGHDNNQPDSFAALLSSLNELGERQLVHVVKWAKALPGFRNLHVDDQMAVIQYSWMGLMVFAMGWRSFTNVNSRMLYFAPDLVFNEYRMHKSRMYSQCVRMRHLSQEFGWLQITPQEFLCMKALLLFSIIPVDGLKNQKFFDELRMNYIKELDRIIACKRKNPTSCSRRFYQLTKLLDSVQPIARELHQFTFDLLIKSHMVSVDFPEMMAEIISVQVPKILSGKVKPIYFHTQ
# Method: Preparation of a rat AR fraction: Prostates were harvested into ice-cooled ET buffer (10 mM Tris, 1 mM EDTA, 5 mM DTT, 10 mM sodium molybdate, pH 7.4) 3 days after orchiectomy in 11-week-old male SD rats. The prostate was finely cut, and ET buffer was added, whereafter the mixture was homogenized using a homogenizer. The homogenate was ultracentrifuged (100,000×g, 60 min, 4° C.), and the supernatant was used as a rat AR fraction (hereinafter referred to as ARF).
# Binding test: ^3H-testosterone (hereinafter referred to as ^3H-T) was diluted with ET buffer. Dihydrotestosterone (DHT) was prepared so as to have a final concentration of 1 μM which was 400 times the maximum concentration of ^3H-T (2.5 nM). The ^3H-T solution was added to a 1.5 ml tube containing DHT, no DHT, or various concentrations of a test compound. Further, 200 μg ARF was added to adjust the final volume to 100 μl. The mixture was incubated for 2 hours at 4° C., and then 300 μl of a 0.05% dextran T70-1.0% activated carbon solution was added. The mixture was further incubated for 15 minutes in ice to remove the free ^3H-T by adsorption. After centrifugation (4° C., 2,500 rpm, 5 min), 275 μl of the supernatant was harvested into a liquid scintillation vial, and 2 ml of Clear Sol was added. The mixture was stirred, allowed to stand, and measured for ^3H radioactivity with a liquid scintillation counter.
# Calculation of the relative binding inhibition rate: The binding inhibition rate (%) of the compound according to the present invention was calculated from the following equation, and the 50% inhibition concentration (IC50) was calculated by the probit analysis of the concentration-binding inhibition curve.
# The relative binding inhibition rate (RBA: Relative Binding Affinity) was determined from the following equation (Endocrinology 138, 863-870, 1997): RBA=100×(IC50 of hydroxyflutamide)/(IC50 of a compound of the present invention)
# [2] = test system: orchiectomized (ORX) rats; experiment: Test Example 2: effect on prostate, levator ani muscle and femoral bone mineral density in ORX rats (subcutaneous); format: in vivo, rat; details: for Femoral bone mineral density / Weight of levator ani muscle / Weight of prostate: 5 days a week, 4 weeks
# Method: Testes were removed from 12-week-old male SD rats. Starting on the next day, the compound of Example 1 (3, 10, 30 mg/kg) or DHT (0.1, 1, 10 mg/kg) was subcutaneously administered once daily for four consecutive weeks on a 5-day-a-week basis. The Example compound and DHT were dissolved in dimethyl sulfoxide and diluted 10-fold with olive oil to prepare solutions with various concentrations for use in the test. In an ORX control group, dimethyl sulfoxide as diluted 10-fold with olive oil was used for the test. Rats which had been falsely operated on without orchiectomy were used as a sham control group. On the next day after final administration, the wet weights of the ventral prostate and levator ani muscle were measured and the right femoral bone mineral density was measured by DEXA (double energy X-ray absorption) to evaluate the in vivo efficacy of the compound of Example 1.
# [3] = test system: orchiectomized (ORX) rats; experiment: Test Example 5: effect of oral administration on prostate, levator ani muscle and femoral bone mineral density in ORX rats; format: in vivo, rat
# Method: Testes were removed from 12-week-old male SD rats. Starting on the next day, the compound of Example 1 (100 mg/10 ml/kg) was orally administered once daily for four consecutive weeks on a 5-day-a-week basis. As a positive control, testosterone propionate (TP) (10 mg/kg) was subcutaneously administered once daily on a continuous 5-day-a-week basis. The test compound was suspended in a 0.5% methyl cellulose solution used as a solvent whereas TP was dissolved in dimethyl sulfoxide and diluted 10-fold with olive oil for use in the test. In an ORX control group, dimethyl sulfoxide as diluted 10-fold with olive oil was used for the test. Rats which had been falsely operated on without orchiectomy were used as a sham control group. On the next day after final administration, the wet weights of the ventral prostate and levator ani muscle were measured and the right femoral bone mineral density was measured by DEXA (double energy X-ray absorption) to evaluate the in vivo efficacy of the compound of Example 1. The results are shown in Table 19 and in FIGS. 10 to 12.
# [4] = test system: orchiectomized (ORX) rats; experiment: Test Example 3: effect on prostate, levator ani muscle and femoral bone mineral density in ORX rats (subcutaneous); format: in vivo, rat
# Method: (§1) Testes were removed from 12-week-old male SD rats. Starting on the next day, the compound of Example 12 or 65 (30 mg/kg) or DHT (0.1, 1, 10 mg/kg) was subcutaneously administered once daily for four consecutive weeks on a 5-day-a-week basis. The Example compounds and DHT were dissolved in dimethyl sulfoxide and diluted 10-fold with olive oil to prepare solutions with various concentrations for use in the test. In an ORX control group, dimethyl sulfoxide as diluted 10-fold with olive oil was used for the test. Rats which had been falsely operated on without orchiectomy were used as a sham control group. On the next day after final administration, the wet weights of the ventral prostate and levator ani muscle were measured and the right femoral bone mineral density was measured by DEXA (double energy X-ray absorption) to evaluate the in vivo efficacy of the compounds of Example 12 and 65.
# [5] = test system: orchiectomized (ORX) rats; experiment: Test Example 4: effect on prostate, levator ani muscle and femoral bone mineral density in ORX rats (subcutaneous); format: in vivo, rat; details: for Prostate weight as % of the level of the sham control group: 30 mg/kg sc; for Femoral bone mineral density / Weight of levator ani muscle / Weight of prostate: 30 mg/kg sc once daily, 5 days a week, 4 weeks
# Method: as §1, with “Example 113” for “Example 12”, “or 114” for “or 65”, “DHT (10” for “DHT (0.1, 1, 10”, “test. […]” for “test. Rats which had been falsely operated on without orchiectomy were used as a sham control group.”, “and 114.” for “and 65.”
# [6] = 100 mg/kg PO once daily, 5 days a week, 4 weeks
# [7] = 30 mg/kg sc once daily, 5 days a week, 4 weeks
structure (smiles),measurement,setting,value
"COCC(=O)NCC(C)(C)[C@H]1Nc2ccc([N+](=O)[O-])cc2C2C=CC[C@H]21 (relative stereo) [Example 1, (3aR*,4S*,9bS*)-2-methoxy-N-[2-methyl-2-(8-nitro-3a,4,5,9b-tetrahydro-3H-cyclopenta[c]quinolin-4-yl)propyl]-1-acetamide]",RBA (Relative Binding Affinity),[1],1076
same,Femoral bone mineral density,[2]; 3 mg/kg sc once daily,116 ± 6 mg/cm^2
same,Weight of levator ani muscle,[2]; 3 mg/kg sc once daily,56 ± 7 mg/100 g body weight
same,Weight of prostate,[2]; 3 mg/kg sc once daily,41 ± 8 mg/100 g body weight
same,Femoral bone mineral density,[2]; 10 mg/kg sc once daily,119 ± 3 mg/cm^2
same,Weight of levator ani muscle,[2]; 10 mg/kg sc once daily,65 ± 6 mg/100 g body weight
same,Weight of prostate,[2]; 10 mg/kg sc once daily,61 ± 10 mg/100 g body weight
same,Prostate weight as % of the level of the sham control group,[2]; 30 mg/kg sc,about 80%
same,Femoral bone mineral density,[2]; 30 mg/kg sc once daily,122 ± 1 mg/cm^2
same,Weight of levator ani muscle,[2]; 30 mg/kg sc once daily,71 ± 4 mg/100 g body weight
same,Weight of prostate,[2]; 30 mg/kg sc once daily,82 ± 10 mg/100 g body weight
same,Femoral bone mineral density,[3]; [6],135 ± 6 mg/cm^2
same,Weight of levator ani muscle,[3]; [6],87 ± 5 mg/100 g body weight
same,Weight of prostate,[3]; [6],117 ± 23 mg/100 g body weight
same,Prostate weight as % of the level of the sham control group,[3]; 100 mg/kg orally,about 75%
"CC(C)(CNC(=O)c1ccc(Br)cc1)[C@H]1Nc2ccc([N+](=O)[O-])cc2C2OCC[C@H]21 (relative stereo) [Example 12, (3aS*,4S*,9bS*)-4-bromo-N-[2-methyl-2-(8-nitro-2,3,3a,4,5,9b-hexahydro-furo[3,2-c]quinolin-4-yl)propyl]benzamide]",RBA (Relative Binding Affinity),[1],94
same,Prostate weight as % of the level of the sham control group,[4]; 30 mg/kg sc,about 35%
same,Femoral bone mineral density,[4]; [7],122 ± 5 mg/cm^2
same,Weight of levator ani muscle,[4]; [7],54 ± 5 mg/100 g body weight
same,Weight of prostate,[4]; [7],36 ± 6 mg/100 g body weight
"CC(C)(CNC(=O)c1ccc(OC(F)(F)F)cc1)[C@H]1Nc2ccc(C#N)cc2[C@H]2OCC[C@H]21 (relative stereo) [Example 113, (3aS*,4S*,9bS*)-N-[2-(8-cyano-2,3,3a,4,5,9b-hexahydro-furo[3,2-c]quinolin-4-yl)-2-methyl-propyl]-4-trifluoromethoxybenzamide]",RBA (Relative Binding Affinity),[1],58
same,Prostate weight as % of the level of the sham control group,[5],about 40%
same,Femoral bone mineral density,[5],148 ± 3 mg/cm^2
same,Weight of levator ani muscle,[5],65 ± 6 mg/100 g body weight
same,Weight of prostate,[5],59 ± 16 mg/100 g body weight
"CCOc1ccc(C(=O)NCC(C)(C)[C@H]2Nc3ccc(C#N)cc3[C@H]3OCC[C@H]32)cc1 (relative stereo) [Example 114, (3aS*,4S*,9bS*)-N-[2-(8-cyano-2,3,3a,4,5,9b-hexahydro-furo[3,2-c]quinolin-4-yl)-2-methyl-propyl]-4-ethoxybenzamide]",RBA (Relative Binding Affinity),[1],55
same,Prostate weight as % of the level of the sham control group,[5],about 60%
same,Femoral bone mineral density,[5],150 ± 8 mg/cm^2
same,Weight of levator ani muscle,[5],66 ± 11 mg/100 g body weight
same,Weight of prostate,[5],86 ± 17 mg/100 g body weight
CCOc1ccc(C(=O)NCC(C)(C)[C@H]2Nc3ccc([N+](=O)[O-])cc3C3OCC[C@H]32)cc1 (some centres unmarked) [Example 20],RBA (Relative Binding Affinity),[1],161
"CC(C)(O)C(=O)Nc1ccc([N+](=O)[O-])c(C(F)(F)F)c1 [Hydroxyflutamide, hydroxyflutamide, reference compound]",RBA (Relative Binding Affinity),[1],100
